According to ChEMBL document CHEMBL5385865, “Discovery and optimization of 2-(trifluoromethyl)benzimidazole derivatives as novel ferroptosis inducers in vitro and in vivo” (Eur J Med Chem, 2023):
Activity calls are given as the source filed them.

How the values were obtained:
[1] = system: HT-1080; assay: Induction of ferroptosis in human HT-1080 cells assessed as increase in mitochondrial membrane density at 5 uM incubated for 24 hrs by TEM analysis; type: functional, cell-based
[2] = Metabolic stability in human liver microsomes assessed as half life at 1 uM in presence of NADPH by LC-MS analysis; type: ADME, Microsome
[3] = system: HT-1080; assay: Induction of ferroptosis in human HT-1080 cells assessed as cell death at 10 uM incubated for 24 hrs in presence of DFO by MTT assay; type: functional, cell-based
[4] = system: HT-1080; assay: Induction of ferroptosis in human HT-1080 cells assessed as cell death incubated for 24 hrs by morphology based microscopy; type: functional; settings: dose 0.5-5 µM
[5] = system: HT-1080; assay: Induction of ferroptosis in human HT-1080 cells assessed as cell death at 5 uM incubated for 24 hrs in presence of DFO by morphology based microscopy; type: functional
[6] = system: HT-1080; assay: Induction of ferroptosis in human HT-1080 cells assessed as cell death at 5 uM incubated for 6 hrs in presence of ferric ammonium citrate by fluorescent microscopy; type: functional, cell-based
[7] = system: HT-1080; assay: Induction of ferroptosis in human HT-1080 cells assessed as cell death at 5 uM incubated for 6 hrs in presence of ferric citrate by fluorescent microscopy; type: functional, cell-based
[8] = system: HT-1080; assay: Induction of ferroptosis in human HT-1080 cells assessed as increase in lipid ROS accumulation at 5 uM incubated for 10 hrs by BODIPY-C11 probe based confocal laser scanning microscopy; type: functional, cell-based
[9] = system: HT-1080; assay: Induction of ferroptosis in human HT-1080 cells assessed as increase in lipid ROS accumulation at 0.5 to 5 uM incubated for 10 hrs by flow cytometry; type: functional, cell-based; settings: dose 0.5-5 µM
[10] = system: HT-1080; assay: Induction of ferroptosis in human HT-1080 cells assessed as increase in cytosolic ROS accumulation incubated for 10 hrs by H2DCFDA probe based flow cytometry; type: functional, cell-based; settings: dose 0.5-5 µM
[11] = system: HT-1080; assay: Induction of ferroptosis in human HT-1080 cells assessed as increase in CHAC1 mRNA level incubated for 6 hrs by qPCR analysis; type: functional, cell-based; settings: dose 0.5-5 µM
[12] = system: HT-1080; assay: Effect on GPX4 mRNA level in human HT-1080 cells at 0.5 to 5 uM incubated for 18 hrs by qPCR analysis; type: functional, cell-based; settings: dose 0.5-5 µM
[13] = target: T1, Phospholipid hydroperoxide glutathione peroxidase GPX4 (Homo sapiens) (UniProt P36969); assay: Inhibition of GPX4 in human HT-1080 cells at 10 to 40 uM incubated for 12 hrs; type: cell-based; settings: dose 10-40 µM
T1 sequence (whole entry): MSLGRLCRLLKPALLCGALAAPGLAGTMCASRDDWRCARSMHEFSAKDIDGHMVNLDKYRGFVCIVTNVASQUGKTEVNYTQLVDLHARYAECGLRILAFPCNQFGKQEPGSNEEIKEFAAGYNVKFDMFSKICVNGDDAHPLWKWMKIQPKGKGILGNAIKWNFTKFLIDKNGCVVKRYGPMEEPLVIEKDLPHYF

[14] = system: HeLa; assay: Lethality in human HeLa cells assessed as inhibition of cell viability incubated for 24 hrs by MTT assay; type: functional, cell-based
[15] = system: DU-145; assay: Lethality in human DU-145 cells assessed as inhibition of cell viability incubated for 24 hrs by MTT assay; type: functional, cell-based; settings: DU-145, 24 h
[16] = system: A-375; assay: Lethality in human A-375 cells assessed as decrease in cell viability at 10 uM incubated for 48 hrs by MTT assay; type: functional, cell-based
[17] = system: MDA-MB-231; assay: Lethality in human MDA-MB-231 cells assessed as decrease in cell viability at 10 uM incubated for 48 hrs in presence of Fer-1 by MTT assay; type: functional, cell-based
[18] = system: HeLa; assay: Lethality in human HeLa cells assessed as decrease in cell viability at 10 uM incubated for 48 hrs in presence of Fer-1 by MTT assay; type: functional, cell-based
[19] = system: HepG2; assay: Lethality in human HepG2 cells assessed as decrease in cell viability at 10 uM incubated for 48 hrs in presence of Fer-1 by MTT assay; type: functional, cell-based
[20] = system: DU-145; assay: Lethality in human DU-145 cells assessed as decrease in cell viability at 10 uM incubated for 48 hrs in presence of DFO by MTT assay; type: functional, cell-based
[21] = Toxicity in human AC16 cells upto 20 uM incubated for 48 hrs by MTT assay; type: cell-based; settings: ac16 [human hybrid]
[22] = Toxicity in human L02 cells upto 20 uM incubated for 48 hrs by MTT assay; type: cell-based; settings: l02, 48 h
[23] = Toxicity in BALB/c nude mouse xenografted with human HepG2 cells assessed as effect on serum TBIL level at 15 to 30 mg/kg, ip administered every other day for 21 days; type: organism-based; settings: in vivo, 504 h, dose 15-30 mg/kg, time 21 day
[24] = Toxicity in BALB/c nude mouse xenografted with human HepG2 cells assessed as effect on serum UREA level at 15 to 30 mg/kg, ip administered every other day for 21 days; type: organism-based; settings: in vivo, 504 h, dose 15-30 mg/kg, time 21 day
[25] = Toxicity in BALB/c nude mouse xenografted with human HepG2 cells assessed as effect on serum CK level at 15 to 30 mg/kg, ip administered every other day for 21 days; type: organism-based; settings: in vivo, 504 h, dose 15-30 mg/kg, time 21 day
[26] = Toxicity in BALB/c nude mouse xenografted with human HepG2 cells assessed as effect on serum LDH level at 15 to 30 mg/kg, ip administered every other day for 21 days; type: organism-based; settings: in vivo, 504 h, dose 15-30 mg/kg, time 21 day
[27] = Toxicity in BALB/c nude mouse xenografted with human HepG2 cells assessed as histological change in spleen at 15 to 30 mg/kg, ip administered every other day for 21 days by H and E staining based analysis; type: organism-based; settings: in vivo, 504 h, dose 15-30 mg/kg, time 21 day
[28] = Toxicity in BALB/c nude mouse xenografted with human HepG2 cells assessed as histological change in lung at 15 to 30 mg/kg, ip administered every other day for 21 days by H and E staining based analysis; type: organism-based; settings: in vivo, 504 h, dose 15-30 mg/kg, time 21 day
[29] = Toxicity in BALB/c nude mouse xenografted with human HepG2 cells assessed as histological change in kidney at 15 to 30 mg/kg, ip administered every other day for 21 days by H and E staining based analysis; type: organism-based; settings: in vivo, 504 h, dose 15-30 mg/kg, time 21 day
[30] = system: HepG2; assay: Induction of ferroptosis in human HepG2 cells xenografted in BALB/c nude mouse assessed as increase in MDA level administered intraperitoneally every other day for 21 days; type: functional; settings: dose 15-30 mg/kg, route ip, time 21.0 day

CN(C)S(=O)(=O)c1ccc(N2CCC(Cn3c(C(F)(F)F)nc4ccccc43)CC2)cc1
active: Activity [1] | Activity [4] Dose-Dependent Effect | Activity [6] | Activity [7] | Activity [8] | Activity [9] | Activity [10] Dose-Dependent Effect | Activity [11] Dose-Dependent Effect | Activity [16] | Activity [30] Dose-Dependent Effect
1640 nM: IC50 [15]
1910 nM: IC50 [14]
Non-Toxic: Activity [21] | Activity [22] | Activity [23] | Activity [24] | Activity [25] | Activity [26] | Activity [27] | Activity [28] | Activity [29]
15.6 min: half-life at 1 µM [2]
inactive: Activity [3] | Activity [5] | Activity [12] | inhibition [13] | Activity [17] | Activity [18] | Activity [19] | Activity [20]
